Measurements reported in publication PMC10301432, “Antiplasmodial, Trypanocidal, and Genotoxicity In Vitro Assessment of New Hybrid α,α-Difluorophenylacetamide-statin Derivatives” (Pharmaceuticals, 2023).
Counter-ions that a name gives are not always drawn. Like-named read-outs stand apart in the source and are kept apart here.

Assays:
[1] = tested on: T. cruzi; test: Trypanocidal in vitro phenotypic screening, overall outcome; format: cell-based, Trypanosoma cruzi; conditions: summarized outcome
Protocol: (§1) Bloodstream trypomastigote forms (BT) of the Y strain were obtained from infected albino Swiss mice at the peak of parasitemia, isolated by differential centrifugation and resuspended in DMEM to a parasite concentration of 10^7 cells/mL in the presence of 10% of mouse blood. This suspension (100 µL) was added in the same volume of 13 (a–d) and 14 (a–d) previously prepared at twice the desired final concentrations.
(§2) Tissue culture-derived trypomastigotes (Tulahuen strain expressing the E. coli β-galactosidase gene) were maintained in L929 cell lines and collected from the supernatant after 96 h of parasite infection, following previously established protocols. Briefly, after 24 h of L929 platting (4 × 10^3 cells/well), the cultures were incubated with trypomastigotes (10:1 parasite/host cell ratio) for 2 h at 37 °C. Then, the cell cultures were rinsed to remove non-internalized parasites and then further incubated for 24 h at 37 °C. Then the infected cultures were followed using two sequential protocols. […] After this period, 50 µL chlorophenol red glycoside (500 µM) in 0.5% Nonidet P40 was added to each well and the plate was incubated for more than 18 h at 37 °C, after which the absorbance was measured at 570 nm. Then, the compounds were next evaluated using dose–response assays in which Tulahuen-infected-L929 cells were exposed to different non-toxic concentrations of each compound (0–50 µM) and then after 96 h of incubation the same procedure was conducted as above reported. Controls with untreated and Bz-treated cells are run in parallel. The results were expressed as the percent difference in the reduction between treated and untreated cells.

[2] = in vitro; format: cell-based; conditions: human
Protocol: Human hepatocellular carcinoma (HepG2) and Chinese Hamster Ovary (CHO-K1) cells obtained from the American Type Culture Collection (Manassas, VA, USA) were cultured in Eagle’s medium (MEM, Gibco®, Waltham, MA, USA) containing 10% fetal bovine serum (FBS) plus 100 µg/mL streptomycin and 100 µg/mL penicillin at 37 °C in a 5% CO2 atmosphere. Logarithmic-phase cells were used in all the experiments.
Fresh HepG2 and CHO-K1 cells were seeded at a density of 1 × 10^4/well. […] Briefly, after treatment, the culture medium was replaced by 90 μL fresh culture medium and 10 μL WST-1 reagent and incubated at 37 °C and 5% CO2 for 3 h. The absorbance was then measured at 440 nm according to the kit protocol.

[3] = tested on: trypomastigote forms of T. cruzi (Y strain); test: Trypanocidal activity on bloodstream trypomastigotes; format: cell-based, Trypanosoma cruzi; conditions: for EC50: Trypanosoma cruzi, bloodstream trypomastigotes, Y strain, 24 h at 37 °C
Protocol: as §1

[4] = tested on: P. falciparum parasites (W2 clone) chloroquine-resistant; test: Antiplasmodial activity, anti-HRPII assay; format: cell-based, Plasmodium falciparum; conditions: for SI: LC50 (HepG2)/EC50 (P. falciparum); for EC50: Plasmodium falciparum, W2, 24 h; for Antiplasmodial Activity: summarized outcome
From the text: P. falciparum W2 clone was maintained in continuous culture as previously described. […] Prior to testing, the ring-stage parasites were synchronized using sorbitol.
The test quantification was read at 450 nm on a spectrophotometer (SpectraMax340PC384, Molecular Devices Sunnyvale, CA, USA), and the drug activity was expressed as the half-maximal inhibitory concentration (EC50) compared to the drug-free controls using the curve-fitting software Origin 8.0 (OriginLab Corporation, Northampton, MA, USA).

[5] = in vitro; format: cell-based; conditions: mouse
Protocol: Primary cultures of cardiac cells (CC) were obtained as reported in [50]. The cultures were sustained in Dulbecco’s modified Eagle’s medium (DMEM) supplemented with 10% horse serum, 5% fetal bovine serum (FBS), 2.5 mM CaCl2, 1 mM L-glutamine, and 2% chicken embryo extract. Cell cultures were maintained at 37 °C in an atmosphere of 5% CO2, and assays were run at least three times in triplicate.
(§3) Cardiac cell cultures were incubated for 24 h at 37 °C with different concentrations of the compounds (up to 200 µM) diluted in DMEM (without phenol red). Their morphology and spontaneous contractibility were evaluated by light microscopy and then the cellular viability was determined by the PrestoBlue® assay. For this colorimetric bioassay, PrestoBlue® (Invitrogen, Waltham, MA, USA) was added to each well (using a 10:1 medium/dye), the plate was further incubated for 24 h followed by optical density (OD) measurement performed at 570 and 600 nm, as recommended by the manufacturer.

[6] = tested on: intracellular forms of T. cruzi (Tulahuen strain transfected with β-galactosidase); test: Activity against intracellular T. cruzi in L929 cells; format: cell-based, Trypanosoma cruzi; conditions: for EC50: Trypanosoma cruzi, L929, intracellular forms, Tulahuen strain, read-out: EC50; for EC50 / 10µM (% of Parasite Lysis): 96 h; for 10µM (% of Parasite Lysis): fixed concentration 10 µM
Protocol: as §2, with “Then, the compounds were next evaluated using dose–response assays in which Tulahuen-infected-L929 cells were exposed to different non-toxic concentrations of each compound (0–50 µM) and then after 96 h of incubation the same procedure was conducted as above reported.” left out

[7] = tested on: HepG2 cells; test: In vitro micronuclei assay, HepG2; format: cell-based, human; conditions: human, 3 h
Protocol: Fresh HepG2 and CHO-K1 cells were seeded at the density of 1 × 10^5 cells/mL into 24-well plates (1 mL/per well). The compounds 13 (a–d) were then added to the medium to final concentrations of 500, 1000 and 2000 µM and incubation continued for 3 h or 24 h. DMSO 10% was used as the negative control, and, BaP (80 µM) for HepG2 and MMC (5 µM) for CHO-K1 were the positive controls. After exposure to the compounds, the cells were incubated for more than 24 h under growth conditions before quantification of the micronuclei and cytotoxicity. The cytogenetic studies were carried out in triplicate as described previously (see [51]). In order to determine the mitotic index and the number of cells with micronuclei, the medium was replaced by a cold methanol-glacial acetic acid (3:1) fixative for 30 min, and the cells then rinsed with distilled water for 2 min and air dried. The fixed cells were stained with 4,6-diamidino-2-phenylindole (DAPI) ([…]) dissolved in McIlvaine buffer (0.1 M citric acid plus 0.2 M Na2HPO4, pH 7.0) for 60 min, washed with McIlvaine buffer for 5 min, briefly rinsed with distilled water and mounted in glycerol. To determine the mitotic index and the number of cells with micronuclei, 1000 cells per well (3000 cells per concentration) were analyzed under a fluorescence microscope. The results for micronuclei were presented as the percentage of cells containing micronuclei in the 3000 cells/concentration group analyzed. Cells that glowed brightly and had homogenous nuclei were considered as having normal phenotypic morphology. Apoptotic nuclei were identified by the condensed chromatin at the periphery of the nuclear membrane or by fragmented nuclear body morphology. Necrotic cells presented chromatin forms with irregularly shaped aggregates, a pyknotic nucleus (shrunken and darkly stained) and cell membrane disruption, with cellular debris spilled into the extracellular milieu. Once again, 3000 cells were counted and the percentage of viable cells was evaluated, discounting apoptotic and necrotic cells. Statistical differences between the groups were analyzed by two-way ANOVA (p < 0.01) and Tukey’s post hoc test.

[8] = tested on: intracellular forms of T. cruzi (Tulahuen strain transfected with β-galactosidase); design: method as in PMID 24590476; conditions: read-out: EC90 value of Bz against intracellular forms of T. cruzi; cited from earlier work
[9] = in vitro; format: cell-based; conditions: mouse; remark: listed apart in the source
Protocol: as §3

[10] = P. falciparum W2 clone, 24 h at 37 °C, read-out: EC50

CC(=O)Nc1ccc(Br)cc1C(F)(F)C(=O)NCC[C@@H](O)C[C@@H](O)CC(=O)O [Compound 14d, Sodium (3R,5R)-7-(2-(2-acetamido-5-bromophenyl)-2,2-difluoroacetamide)-3,5-dihydroxyheptanoate salt]
Trypanocidal Activity [1]: No | CC50 at 24 h [2]: > 409 µM | EC50 [3]: > 500 µM | SI [4]: Inactive | EC50 [4, 10]: > 102 µM | Antiplasmodial Activity [4]: No | CC50 at 24 h [5]: > 500 µM

CCN(CC)CCCC(C)Nc1ccnc2cc(Cl)ccc12 (stereo not drawn) [Chloroquine, chloroquine, reference compound]
EC50 [4]: 0.59 ± 0.03 µM

CC(=O)Nc1ccccc1C(F)(F)C(=O)NCC[C@@H](O)C[C@@H](O)CC(=O)O [Compound 14a, Sodium (3R,5R)-7-(2-(2-acetamido-phenyl)-2,2-difluoroacetamide)-3,5-dihydroxyheptanoate salt]
Trypanocidal Activity [1]: No | CC50 at 24 h [2]: > 488 µM | EC50 [3]: > 500 µM | SI [4]: Inactive | EC50 [4, 10]: > 122 µM | Antiplasmodial Activity [4]: No | CC50 at 24 h [5]: > 500 µM

CC(C)c1c(C(=O)Nc2ccccc2)c(-c2ccccc2)c(-c2ccc(F)cc2)n1CC[C@@H](O)C[C@@H](O)CC(=O)O [AVA, atorvastatin, reference compound]
EC50 [3]: 7.07 ± 1.78 µM | EC50 [4, 10]: 10.3 ± 1.2 µM | EC50 [6]: 45.3 ± 3.06 µM | 10µM (% of Parasite Lysis) [6]: 31.73 ± 5.80% | cytotoxicity (survival rate) in micronuclei assay [7]: significant cytotoxic effects upon 1000 µM

CC(=O)Nc1ccc(C)cc1C(F)(F)C(=O)NCC[C@@H](O)C[C@@H](O)CC(=O)O [Compound 14b, Sodium (3R,5R)-7-(2-(2-acetamido-5-methylphenyl)-2,2-difluoroacetamide)-3,5-dihydroxyheptanoate salt]
Trypanocidal Activity [1]: No | CC50 at 24 h [2]: > 472 µM | EC50 [3]: > 500 µM | SI [4]: Inactive | EC50 [4, 10]: > 118 µM | Antiplasmodial Activity [4]: No | CC50 at 24 h [5]: > 500 µM

O=C(Cn1ccnc1[N+](=O)[O-])NCc1ccccc1 [Benznidazole, benznidazole, reference compound]
SI ([3]; LC50 (cardiac cells)/EC50 (trypomastigotes)): >77 | EC50 [3]: 13 ± 2 µM | CC50 at 24 h [5]: > 1000 µM | EC90 [8]: 10 µM | CC50 at 96 h [9]: 169 ± 27.2 µM | SI ([6]; LC50 (L929)/EC50 (intracellular forms)): 92.4 | EC50 [6]: 1.83 ± 0.73 µM | 10µM (% of Parasite Lysis) [6]: 87.84 ± 7.08%

CC(=O)Nc1ccc(Cl)cc1C(F)(F)C(=O)NCC[C@@H](O)C[C@@H](O)CC(=O)O [Compound 14c, Sodium (3R,5R)-7-(2-(2-acetamido-5-chlorophenyl)-2,2-difluoroacetamide)-3,5-dihydroxyheptanoate salt]
Trypanocidal Activity [1]: No | CC50 at 24 h [2]: > 450 µM | EC50 [3]: > 500 µM | SI [4]: Inactive | EC50 [4, 10]: > 112 µM | Antiplasmodial Activity [4]: No | CC50 at 24 h [5]: > 500 µM
